Test results reported in paper PMC9484092, “Three novel leaderless bacteriocins have antimicrobial activity against gram-positive bacteria to serve as promising food biopreservative” (Microbial Cell Factories, 2022).
No end group written: not given here. *: point of attachment. For = O=C*

Key:
[1] = system: Bacillus subtilis 168; type: cell-based; settings: 168, 2 h
Experimental: (§1) Antibacterial activity against various indicator strains were determined by the agar well diffusion method. Briefly, each of the indicator strains (10^6 CFU/mL) was spread on a LB agar plate (45 °C) with wells (diameter = 6 mm). Then, 50 μL bacteriocin solution was added to the wells. The plate was kept at 4 °C for 2 h and subsequently incubated at a temperature suitable for the growth of the indicator strains for 12 h, followed by the measurement of inhibition zone to assess the antimicrobial activity.
(§2) The minimum inhibitory concentrations (MICs) of the bacteriocins against various indicator strains were determined by a previously described method. Briefly, the antimicrobial activities of different final concentrations bacteriocin solutions were measured by the agar well diffusion method described above. The MIC was defined at the lowest concentration of samples that could form a clear zone of inhibition.

[2] = system: Lysinibacillus fusiformis ZZY15-1; type: cell-based; settings: 2 h
Experimental: as §1, §2

[3] = system: Bacillus cereus ATCC 14579; type: cell-based; settings: ATCC 14579, 12 h
Experimental: as §1, §2

[4] = system: Bacillus siamensis HCX05; type: cell-based; settings: 2 h
Experimental: as §1, §2

[5] = system: Glutamicibacter arilaitensis HCX33; type: cell-based; settings: 2 h
Experimental: as §1, §2

[6] = system: Bacillus pumilus SCG1; type: cell-based; settings: 2 h
Experimental: as §1, §2

[7] = system: Bacillus subtilis Bsn5; type: cell-based; settings: Bsn5, 2 h
Experimental: as §1, §2

[8] = system: Listeria monocytogenes LM605; type: cell-based; settings: LM605, 2 h
Experimental: as §1, §2

[9] = system: Bacillus simplex SYY08; type: cell-based; settings: 2 h
Experimental: as §1, §2

[10] = system: Listeria monocytogenes LM201; type: cell-based; settings: LM201, 2 h
Experimental: as §1, §2

[11] = system: Staphylococcus aureus ATCC 43300; type: cell-based; settings: ATCC 43300, 2 h
Experimental: as §1, §2

[12] = system: Bacillus cereus UW85; type: cell-based; settings: UW85, 2 h
Experimental: as §1, §2

[13] = system: Bacillus firmus DS-1; type: cell-based; settings: 2 h
Experimental: as §1, §2

[14] = system: Bacillus thuringiensis BMB171; type: cell-based; settings: 2 h
Experimental: as §1, §2

[15] = system: Rhodococcus sp. ZCH08; type: cell-based; settings: 2 h
Experimental: as §1, §2

[16] = system: Staphylococcus succinus SYY04; type: cell-based; settings: 2 h
Experimental: as §1, §2

[17] = system: Bacillus thuringiensis P86; assay: MIC, agar well diffusion; type: cell-based; settings: Bacillus thuringiensis P86 (thucin A1 producer strain), LB, lowest concentration forming a clear zone, highest concentration 60 μM
Experimental: as §1, §2

[18] = biological target: proteinase K (Parengyodontium album, UniProt P06873); assay: Protease stability, residual antimicrobial activity; type: in vitro ADME; settings: 4× MIC mixed 1:1 (v/v) with proteinase K 1 mg/mL (≥ 40 U/mg), 37 °C, 2 h; agar well diffusion, B. cereus ATCC 14579; triplicate
Sequence of proteinase K (P06873 106-384): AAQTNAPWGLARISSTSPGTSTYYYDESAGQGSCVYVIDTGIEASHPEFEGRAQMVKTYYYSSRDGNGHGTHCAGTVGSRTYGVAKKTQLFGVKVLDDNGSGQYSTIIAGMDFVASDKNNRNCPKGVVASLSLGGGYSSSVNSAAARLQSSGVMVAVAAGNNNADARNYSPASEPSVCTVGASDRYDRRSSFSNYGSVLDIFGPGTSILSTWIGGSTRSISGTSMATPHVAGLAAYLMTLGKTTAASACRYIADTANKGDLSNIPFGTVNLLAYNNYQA
Experimental: as §1
Nisin A was commercial nisin A (Sigma-Aldrich, Shanghai, China) purified by HPLC as described above. The purity of nisin A and thucin A1 was all greater than 95% based on the ratio of absorption peak area at 210 nm. The stability assay was performed by previously described method with some modifications. To compare the pH stability of thucin A1 and nisin A, the bacteriocin solutions (1× , 2× , 4× , 8× MIC) were adjusted to pH 2.0, 3.0, 4.0, 5.0, 6.0, 7.0, 8.0, 9.0, 10.0, 11.0 and 12.0 with 0.5 M NaOH or 0.5 M HCl solution, followed by incubation at 37 °C for 4 h. The residual antimicrobial activity was tested after neutralizing the sample to pH 6.0. […] The indicator strain used in this experiment was B. cereus ATCC 14579 and the antimicrobial activity was determined with the agar well diffusion method as described above. […]

For-MIAFLRIVAQLGARAARWAWANKDRVLGWIRDGMAIDWIINKINDMVS [Thucin A1]
MIC [1]: 3.75 µM
MIC [2]: 7.5 µM
MIC [3]: 1.88 µM
MIC [4]: 3.75 µM
MIC [5]: 7.5 µM
MIC [6]: 3.75 µM
MIC [7]: 3.75 µM
MIC [8]: 0.47 µM
MIC [9]: 1.88 µM
MIC [10]: 0.47 µM
MIC [11]: 15 µM
MIC [12]: 1.88 µM
MIC [13]: 3.75 µM
MIC [14]: 1.88 µM
MIC [15]: 15 µM
MIC [16]: 15 µM
MIC [17]: 7.5 µM
residual antimicrobial activity after digestion with proteinase K [18]: completely lost its antimicrobial activity
